Assay results as given in ChEMBL document CHEMBL1201862, “PubChem BioAssay data set” (2004).
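Test compounds were applied to cells in 96-well plates for 48 hours at 5 doses. GI50 is the concentration that inhibits growth by half.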 The source made the active and inactive calls. No stated cut-off is given here; in the data, active = GI50 up to about 1.1 µM and inactive = higher.

Key:
Experiment in all cases: NCI tumour cell line growth inhibition, 48 h
M14 = tested on: M14
NCI/ADR-RES = tested on: NCI/ADR-RES
A498 = tested on: A498
SF-268 = tested on: SF-268
SN12C = tested on: SN12C
HOP-92 = tested on: HOP-92
HL-60 = tested on: HL-60
K562 = tested on: K562
PC-3 = tested on: PC-3
OVCAR-8 = tested on: OVCAR-8
NCI-H522 = tested on: NCI-H522
RPMI-8226 = tested on: RPMI-8226
NCI-H460 = tested on: NCI-H460
UO-31 = tested on: UO-31
LOX IMVI = tested on: LOX IMVI
SNB-75 = tested on: SNB-75
RXF 393 = tested on: RXF 393
HOP-62 = tested on: HOP-62
SR = tested on: SR

Measured: GI50

CCCCc1ccc(NC(=N)N)cc1
inactive: M14 24.2 µM | NCI/ADR-RES 29.9 µM | A498 35.6 µM | SF-268 40.2 µM | SN12C 40 µM | HOP-92 28.7 µM | HL-60 34.1 µM | K562 12.6 µM | PC-3 23.8 µM | OVCAR-8 38.4 µM | NCI-H522 28.1 µM | RPMI-8226 17 µM | NCI-H460 20.2 µM | UO-31 33.6 µM | LOX IMVI 40 µM

S=c1scc(-c2ccc(Cl)cc2)n1OC1CCCC1
inactive: M14 36.9 µM | NCI/ADR-RES 23.8 µM | SNB-75 36.5 µM | RXF 393 17.1 µM | A498 26.1 µM | HOP-62 36.7 µM | SF-268 72.9 µM | SN12C 35.8 µM | HOP-92 21.3 µM | HL-60 22 µM | K562 16.1 µM | PC-3 29.9 µM | OVCAR-8 33.8 µM | NCI-H522 16.4 µM | NCI-H460 25.2 µM | UO-31 40.6 µM | LOX IMVI 23.6 µM

CC1CC(=O)Nc2ccc(/N=N/N(C)C)cc2N1C=O (configuration not stated)
inactive: M14 > 100 µM | NCI/ADR-RES > 100 µM | SNB-75 > 100 µM | RXF 393 > 100 µM | HOP-62 > 100 µM | SF-268 > 100 µM | SN12C > 100 µM | K562 > 100 µM | PC-3 > 100 µM | OVCAR-8 > 100 µM | NCI-H522 > 100 µM | RPMI-8226 > 100 µM | NCI-H460 > 100 µM | UO-31 > 100 µM

COc1c(O)c(OC)c(C(=O)/C=C/c2ccccc2)c(O)c1OC [PEDICIN]
inactive: M14 37.6 µM | NCI/ADR-RES 18.2 µM | SNB-75 30.3 µM | SF-268 29 µM | SN12C 18.3 µM | HOP-92 21.2 µM | HL-60 58.2 µM | K562 40.6 µM | PC-3 41.6 µM | OVCAR-8 17.9 µM | NCI-H522 16 µM | RPMI-8226 34.6 µM | NCI-H460 19.1 µM | LOX IMVI 30.3 µM

CN1Cc2cc3cc4c(cc3nc2N(C)C1)OCCO4
inactive: M14 > 100 µM | NCI/ADR-RES > 100 µM | SNB-75 > 100 µM | RXF 393 > 100 µM | A498 68.4 µM | HOP-62 > 100 µM | SF-268 > 100 µM | SN12C > 100 µM | HOP-92 > 100 µM | K562 > 100 µM | PC-3 > 100 µM | OVCAR-8 > 100 µM | NCI-H522 > 100 µM | RPMI-8226 54.7 µM | NCI-H460 > 100 µM | LOX IMVI > 100 µM

CC(C)=CCC/C(C)=C/CCC1(C)C2COC(=O)C21 (configuration not stated)
inactive: SR 37 µM | RXF 393 > 100 µM | A498 > 100 µM | HOP-62 > 100 µM | SF-268 > 100 µM | SN12C 77.3 µM | HOP-92 18.2 µM | HL-60 19.8 µM | K562 22.6 µM | PC-3 44.4 µM | NCI-H522 53.2 µM | NCI-H460 36.2 µM | UO-31 43.3 µM | LOX IMVI 26.7 µM

COc1cc(COC(=O)N(C)[C@@H](Cc2ccccc2)C(=O)O)c([N+](=O)[O-])cc1OC
inactive: M14 > 100 µM | NCI/ADR-RES > 100 µM | SNB-75 > 100 µM | HOP-62 > 100 µM | SF-268 > 100 µM | SN12C > 100 µM | HOP-92 > 100 µM | HL-60 > 100 µM | K562 > 100 µM | PC-3 > 100 µM | OVCAR-8 > 100 µM | RPMI-8226 > 100 µM | NCI-H460 > 100 µM | UO-31 > 100 µM

CC(=O)C1C(=O)C(=O)N(c2cccc(C)c2C)C1=O (configuration not stated)
inactive: M14 > 100 µM | NCI/ADR-RES > 100 µM | SNB-75 > 100 µM | HOP-62 > 100 µM | SN12C > 100 µM | HOP-92 > 100 µM | HL-60 > 100 µM | PC-3 > 100 µM | OVCAR-8 > 100 µM | UO-31 > 100 µM | LOX IMVI > 100 µM

COc1cc(OC)c(OC)cc1/C=C/c1ccccn1
inactive: M14 > 10 µM | NCI/ADR-RES > 10 µM | SNB-75 > 10 µM | RXF 393 > 10 µM | A498 > 10 µM | HOP-62 > 10 µM | SF-268 > 10 µM | SN12C > 10 µM | HOP-92 > 10 µM | HL-60 > 10 µM | K562 > 10 µM | PC-3 > 10 µM | OVCAR-8 > 10 µM | NCI-H522 > 10 µM | NCI-H460 > 10 µM | UO-31 > 10 µM | LOX IMVI > 10 µM
